Article PMC10492809, “A Bischler-Napieralski and homo-Mannich sequence enables diversified syntheses of sarpagine alkaloids and analogues” (Nature Communications, 2023)

Columns and labels:
Format in all cases: cell-based
[1] = MTT cytotoxicity towards normal cells, BEAS-2B; conditions: human
Protocol: (§1) All cell lines were cultured at 37 °C with 5% CO2 in a humidified incubator. HeLa cells were grown in MEM (Gibco) supplemented with 10% fetal bovine serum (FBS, Hyclone) and 1% penicillin/streptomycin (Gibco). MIA PaCa-2, MDA-MB-231, A549, MCF-7, A375 and BEAS-2B cells were grown in DMEM (Gibco) supplemented with 10% FBS and 1% penicillin/streptomycin. CT26, and HCT116 cells were grown in RPMI-1640 supplemented with 10% FBS and 1% penicillin/streptomycin. All cell lines were purchased from the National Collection of Authenticated Cell Cultures (China).
(§2) The antiproliferative activities of the prepared compounds against tested cell lines were evaluated using a standard (MTT)-based colorimetric assay. Cells were plated at a density of 3000 cells/well in 96-well plates and allowed to adhere overnight. Then cells were treated with varying concentrations of synthesized compounds for 72 h. At the end of treatment, 20 μL of thiazolyl blue tetrazolium bromide (MTT) solution (5 mg/mL) was added to each well. Cells were incubated for an additional 4 h at 37 °C and then the medium was removed and replaced with 200 μL of DMSO. The absorbance (OD490) was read on a microplate reader (SpectraMax i3x, Molecular Devices, US). In all experiments, three replicate wells were used for each drug concentration. Each assay was performed at least three times. The IC50 values were calculated by GraphPad Prism 9, which were the mean values derived from three independent experiments.

MDA-MB-231 cells [2] = assay: Cell death manner assay (MTT, co-incubation with cell death inhibitors)
Protocol: [The source words this procedure for another cell line and reports this cell line under the same test.] To investigate the mechanism of 15ai in cancer cell proliferation inhibition, the manners of cell death were analyzed. The cell apoptosis inhibitor Z-VAD-FMK (Z-VAD), cell necrosis inhibitor Necrostatin-1 (Necro-1), ferroptosis inhibitor Ferrostatin-1 (Fer-1), and ROS inhibitor N-acetylcysteine (NAC) were purchased and stored at −20 °C. A375 cells were seeded with a density of 5000 cells/100 µL/well into 96 well plates. After 12 h, 15ai was added at different concentrations. Following that 10 µM Z-VAD, 10 µM Nerco-1, 10 µM Fer-1, and 5 mM NAC were added and co-incubated with 15ai, respectively, for 72 h. Then, 20 µL MTT solution (5 mg/mL) was added and incubated at 37 °C for an additional 4 h. Then, the supernatant was discarded, and 200 μL DMSO was added to dissolve the precipitate. After 15 min, the absorbance (OD490) was read on a microplate reader (SpectraMax i3x, Austria). In all experiments, three replicate wells were used for each drug concentration. Each assay was performed at least three times.

cancer cell lines = assay: In vitro cancer cell assays (antiproliferation, cell line not given); conditions: improvement over vellosimine (4)
Protocol: as §1, §2

MDA-MB-231 cells [3] = assay: Measurement of lipid (BODIPY-C11) and cytosolic (DCFH-DA) ROS; conditions: 12 h; suppressed by Fer-1 (10 μM)
Protocol: Lipid ROS was analyzed by flow cytometry: cells were plated at a density of 2 × 10^5 cells/well in 6-well plates. After treatment as indicated, cells were stained with 5 μM BODIPY-C11 dye (diluted in serum-containing DMEM) for 30 min at 37 °C in an incubator. For cytosolic ROS, cells were stained with 10 μM DCF (diluted in serum-free DMEM). Following staining, cells were pelleted and resuspended in 1 mL of PBS. Fluorescence intensity was measured by the analytical flow cytometry (CytoFLEX, […], US). A minimum of 10,000 cells were analyzed for each condition. Data analysis was performed using the FlowJo 7.6.1 software. The starting cell population gating by Forward Scatter and Side Scatter was used to make sure doublet exclusion. Only single cell was used for analysis.

## C=C=C1CN2[C@H]3C[C@H]1[C@H](C=O)[C@@H]2Cc1c3n(S(=O)(=O)c2ccc(C)cc2)c2ccc(Cl)cc12 [Compound 15ai]
[1]; BEAS-2B lung epithelial cells (normal cells), source data sheet, single values of three experiments
  IC50 at 72 h: > 100 µM
[1]; BEAS-2B lung epithelial cells, MTT, 72 h, cytotoxicity towards normal cells, mean of at least three independent experiments
  CC50 at 72 h: > 100 µM
MDA-MB-231 cells [2]; Homo sapiens, MDA-MB-231, 72 h, read-out: Percentage of viability, Fer-1 / NAC experiment, 15ai 10 μM, Fer-1 10 μM, NAC 5 mM, 72 h, single replicates
  viability at 10 µM: 21.2%
MDA-MB-231 cells [2]; MDA-MB-231 cells, addition of apoptosis inhibitor Z-VAD-FMK or necroptosis inhibitor necrostatin-1
  reversal of 15ai-induced cell death by Z-VAD or Necro-1: could not reverse cell death
MDA-MB-231 cells [2]; co-existence of ferroptosis inhibitor Fer-1 or ROS inhibitor NAC
  rescue of cell viability by Fer-1 or NAC: remarkably rescued cell viability
Cancer cell lines
  anticancer activity compared to vellosimine (4): tenfold-improved
MDA-MB-231 cells [3]
  lipid ROS and cytosolic ROS accumulation: induce lipid ROS and cytosolic ROS accumulation significantly
